Data reported in patent US20100298141A1, “SUBSTITUTED PYRIDINE N-OXIDE HERBICIDES” (E. I. DU PONT DE NEMOURS AND COMPANY, priority 2007, published 2010).

How the values were obtained:
giant foxtail = test: Test C pre-/postemergence test; type: in vivo, Setaria faberii
Outline: (§1)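 Test chemicals were formulated with surfactant in a non-phytotoxic solvent and sprayed both on freshly planted seeds (preemergence) and on 1- to 4-leaf plants of 2–18 cm (postemergence). Flooded-paddy pots received compound directly into 3 cm of standing water, maintained for the test.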

velvetleaf [1] = test: Test C pre-/postemergence test; type: in vivo, Abutilon theophrasti
Outline: as §1

johnsongrass = test: Test C pre-/postemergence test; type: in vivo, Sorghum halepense
Outline: as §1

common ragweed = test: Test C pre-/postemergence test; type: in vivo, Ambrosia elation
Outline: as §1

crabgrass = test: Test C pre-/postemergence test; type: in vivo, Digitaria sanguinalis
Outline: as §1

lambsquarters = test: Test C pre-/postemergence test; type: in vivo, Chenopodium album
Outline: as §1

eastern black nightshade = test: Test C pre-/postemergence test; type: in vivo, Solanum ptycanthum
Outline: as §1

kochia = test: Test C pre-/postemergence test; type: in vivo, Kochia scoparia
Outline: as §1

duck salad = test: Test C flooded paddy test; type: in vivo, Heteranthera limosa; settings: Flood
Outline: (§2)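 Compound was added to standing water 3 cm above soil, flood maintained, and plants held in a greenhouse before visual scoring against controls at 13 to 15 days.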

redroot pigweed = test: Test A pre-/postemergence greenhouse test; type: in vivo, Amaranthus retroflexus; settings: for Plant response rating, Pigweed: 0 to 100 scale where 0 is no effect and 100 is complete control; for Pigweed plant response rating: 0 to 100 scale
Outline: (§3)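 Pre: directed soil spray on seeded loam/sand. Post: foliar spray, plants 2–10 cm, 1–2 leaf stage, applied concurrently. Vehicle: non-phytotoxic solvent + surfactant. Greenhouse ~10 d; visual injury rating vs untreated controls.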

rice = test: Test C flooded paddy test; type: in vivo, Oryza sativa; settings: Flood
Outline: as §2

downy brome = test: Test C pre-/postemergence test; type: in vivo, Bromus tectorum
Outline: as §1

wild oat = test: Test C pre-/postemergence test; type: in vivo, Avena fatua
Outline: as §1

cocklebur = test: Test C pre-/postemergence test; type: in vivo, Xanthium strumarium
Outline: as §1

green foxtail = test: Test C pre-/postemergence test; type: in vivo, Setaria viridis
Outline: as §1

Surinam grass = test: Test C pre-/postemergence test; type: in vivo, Brachiaria decumbens
Outline: as §1

barnyardgrass = test: Test A pre-/postemergence greenhouse test; type: in vivo, Echinochloa crus-galli; settings: for Plant response rating, Barnyardgrass: 0 to 100 scale where 0 is no effect and 100 is complete control; for Barnyardgrass plant response rating: 0 to 100 scale
Outline: as §3

velvetleaf [2] = test: Test A pre-/postemergence greenhouse test; type: in vivo, Abutilon theophrasti; settings: for Plant response rating, Velvetleaf: 0 to 100 scale where 0 is no effect and 100 is complete control; for Velvetleaf plant response rating: 0 to 100 scale
Outline: as §3

[3] = 62 g ai/ha, Preemergence, scale 0 to 100
[4] = 125 g ai/ha, preemergence, scale 0 (no effect) to 100 (complete control)
[5] = Postemergence, 62 g ai/ha, scale 0 to 100, 0 no effect, 100 complete control
[6] = Postemergence, 125 g ai/ha, scale 0 to 100, 0 no effect, 100 complete control
[7] = Postemergence, 250 g ai/ha, scale 0 to 100, 0 no effect, 100 complete control
[8] = Preemergence, 31 g ai/ha, scale 0 to 100 (0 no effect, 100 complete control)
[9] = preemergence, 250 g ai/ha, scale 0 (no effect) to 100 (complete control)
[10] = 62 g ai/ha, scale 0 to 100 (0 no effect, 100 complete control)
[11] = 250 g ai/ha, scale 0 to 100, 0 no effect, 100 complete control, 13 to 15 days
[12] = Postemergence, 500 g ai/ha, 0 is no effect, 100 is complete control
[13] = Preemergence, 125 g ai/ha, 0 no effect, 100 complete control

Cn1nc(C(F)(F)F)c(C[S+]([O-])c2ccc(F)c[n+]2[O-])c1OC(F)F (centres unmarked) [Compound 58]
Foxtail, Giant plant response rating (giant foxtail; [3]): 100
Foxtail, Giant plant response rating (giant foxtail; [4]): 100
Plant response rating (0 to 100), Foxtail, Giant (giant foxtail; Postemergence, 31 g ai/ha): 0
Plant response rating, Foxtail, Giant (giant foxtail; [5]): 10
Plant response rating, Foxtail, Giant (giant foxtail; [6]): 40
Plant response rating, Foxtail, Giant (giant foxtail; [7]): 60
Plant response rating, Foxtail, Giant (giant foxtail; [8]): 40
Foxtail, Giant plant response rating (giant foxtail; [9]): 100
Velvetleaf plant response rating (velvetleaf [1]; [3]): 75
Velvetleaf plant response rating (velvetleaf [1]; [4]): 100
Plant response rating (0 to 100), Velvetleaf (velvetleaf [1]; Postemergence, 31 g ai/ha): 0
Plant response rating (0 to 100), Velvetleaf (velvetleaf [1]; Postemergence, 62 g ai/ha): 0
Plant response rating, Velvetleaf (velvetleaf [1]; [6]): 5
Plant response rating, Velvetleaf (velvetleaf [1]; [7]): 5
Plant response rating, Velvetleaf (velvetleaf [1]; [8]): 5
Velvetleaf plant response rating (velvetleaf [1]; [9]): 100
Johnsongrass plant response rating (johnsongrass; [3]): 95
Johnsongrass plant response rating (johnsongrass; [4]): 100
Plant response rating (0 to 100), Johnsongrass (johnsongrass; Postemergence, 31 g ai/ha): 0
Plant response rating, Johnsongrass (johnsongrass; [5]): 0
Plant response rating, Johnsongrass (johnsongrass; [6]): 10
Plant response rating, Johnsongrass (johnsongrass; [7]): 60
Plant response rating, Johnsongrass (johnsongrass; [8]): 85
Johnsongrass plant response rating (johnsongrass; [9]): 100
Ragweed plant response rating (common ragweed; [3]): 30
Ragweed plant response rating (common ragweed; [4]): 55
Plant response rating (0 to 100), Ragweed (common ragweed; Postemergence, 31 g ai/ha): 0
Plant response rating (0 to 100), Ragweed (common ragweed; Postemergence, 62 g ai/ha): 0
Plant response rating, Ragweed (common ragweed; [6]): 0
Plant response rating, Ragweed (common ragweed; [7]): 30
Plant response rating, Ragweed (common ragweed; [8]): 30
Ragweed plant response rating (common ragweed; [9]): 100
Crabgrass, Large plant response rating (crabgrass; [3]): 100
Crabgrass, Large plant response rating (crabgrass; [4]): 100
Plant response rating (0 to 100), Crabgrass, Large (crabgrass; Postemergence, 31 g ai/ha): 0
Plant response rating, Crabgrass, Large (crabgrass; [5]): 0
Plant response rating, Crabgrass, Large (crabgrass; [6]): 0
Plant response rating, Crabgrass, Large (crabgrass; [7]): 45
Plant response rating, Crabgrass, Large (crabgrass; [8]): 50
Crabgrass, Large plant response rating (crabgrass; [9]): 100
Lambsquarters plant response rating (lambsquarters; [3]): 100
Lambsquarters plant response rating (lambsquarters; [4]): 100
Plant response rating (0 to 100), Lambsquarters (lambsquarters; Postemergence, 31 g ai/ha): 0
Plant response rating, Lambsquarters (lambsquarters; [5]): 0
Plant response rating, Lambsquarters (lambsquarters; [6]): 0
Plant response rating, Lambsquarters (lambsquarters; [7]): 30
Plant response rating, Lambsquarters (lambsquarters; [8]): 70
Lambsquarters plant response rating (lambsquarters; [9]): 100
Nightshade plant response rating (eastern black nightshade; [3]): 100
Nightshade plant response rating (eastern black nightshade; [4]): 100
Plant response rating, Nightshade (eastern black nightshade; [8]): 100
Nightshade plant response rating (eastern black nightshade; [9]): 100
Kochia plant response rating (kochia; [3]): 50
Kochia plant response rating (kochia; [4]): 100
Plant response rating (0 to 100), Kochia (kochia; Postemergence, 31 g ai/ha): 0
Plant response rating, Kochia (kochia; [5]): 0
Plant response rating, Kochia (kochia; [6]): 0
Plant response rating, Kochia (kochia; [7]): 50
Plant response rating, Kochia (kochia; [8]): 0
Kochia plant response rating (kochia; [9]): 100
Plant response rating, Ducksalad (duck salad; [10]): 70
Plant response rating, Ducksalad (duck salad; [11]): 80
Plant response rating, Pigweed (redroot pigweed; Postemergence, 125 g ai/ha): 70
Pigweed plant response rating (redroot pigweed; [12]): 90
Pigweed plant response rating (redroot pigweed; [13]): 80
Plant response rating, Pigweed (redroot pigweed; Preemergence, 500 g ai/ha): 100
Plant response rating, Rice (rice; [10]): 40
Plant response rating, Rice (rice; [11]): 65
Bromegrass, Downy plant response rating (downy brome; [3]): 60
Bromegrass, Downy plant response rating (downy brome; [4]): 100
Plant response rating (0 to 100), Bromegrass, Downy (downy brome; Postemergence, 31 g ai/ha): 0
Plant response rating, Bromegrass, Downy (downy brome; [5]): 0
Plant response rating, Bromegrass, Downy (downy brome; [6]): 0
Plant response rating, Bromegrass, Downy (downy brome; [7]): 60
Plant response rating, Bromegrass, Downy (downy brome; [8]): 0
Bromegrass, Downy plant response rating (downy brome; [9]): 100
Oat, Wild plant response rating (wild oat; [3]): 45
Oat, Wild plant response rating (wild oat; [4]): 80
Plant response rating (0 to 100), Oat, Wild (wild oat; Postemergence, 31 g ai/ha): 0
Plant response rating, Oat, Wild (wild oat; [5]): 0
Plant response rating, Oat, Wild (wild oat; [6]): 0
Plant response rating, Oat, Wild (wild oat; [7]): 5
Plant response rating, Oat, Wild (wild oat; [8]): 20
Oat, Wild plant response rating (wild oat; [9]): 80
Cocklebur plant response rating (cocklebur; [3]): 0
Cocklebur plant response rating (cocklebur; [4]): 0
Plant response rating (0 to 100), Cocklebur (cocklebur; Postemergence, 31 g ai/ha): 0
Plant response rating, Cocklebur (cocklebur; [5]): 0
Plant response rating, Cocklebur (cocklebur; [6]): 0
Plant response rating, Cocklebur (cocklebur; [7]): 0
Plant response rating, Cocklebur (cocklebur; [8]): 0
Cocklebur plant response rating (cocklebur; [9]): 40
Foxtail, Green plant response rating (green foxtail; [3]): 98
Foxtail, Green plant response rating (green foxtail; [4]): 100
Plant response rating (0 to 100), Foxtail, Green (green foxtail; Postemergence, 31 g ai/ha): 0
Plant response rating, Foxtail, Green (green foxtail; [5]): 25
Plant response rating, Foxtail, Green (green foxtail; [6]): 50
Plant response rating, Foxtail, Green (green foxtail; [7]): 80
Plant response rating, Foxtail, Green (green foxtail; [8]): 70
Foxtail, Green plant response rating (green foxtail; [9]): 100
Surinam Grass plant response rating (Surinam grass; [3]): 80
Surinam Grass plant response rating (Surinam grass; [4]): 85
Plant response rating (0 to 100), Surinam Grass (Surinam grass; Postemergence, 31 g ai/ha): 0
Plant response rating (0 to 100), Surinam Grass (Surinam grass; Postemergence, 62 g ai/ha): 0
Plant response rating, Surinam Grass (Surinam grass; [6]): 10
Plant response rating, Surinam Grass (Surinam grass; [7]): 45
Plant response rating, Surinam Grass (Surinam grass; [8]): 70
Surinam Grass plant response rating (Surinam grass; [9]): 100
Plant response rating, Barnyardgrass (barnyardgrass; Postemergence, 125 g ai/ha): 80
Barnyardgrass plant response rating (barnyardgrass; [12]): 90
Barnyardgrass plant response rating (barnyardgrass; [13]): 90
Plant response rating, Barnyardgrass (barnyardgrass; Preemergence, 500 g ai/ha): 90
Plant response rating, Velvetleaf (velvetleaf [2]; Postemergence, 125 g ai/ha): 60
Velvetleaf plant response rating (velvetleaf [2]; [12]): 80
Velvetleaf plant response rating (velvetleaf [2]; [13]): 60
Plant response rating, Velvetleaf (velvetleaf [2]; Preemergence, 500 g ai/ha): 100
